Holding throughout (assay type): biochemical
Experiment [1] has as its target JMJD2C (Homo sapiens (Human), UniProt Q9H3R0). Description: JMJD2C in vitro enzyme inhibition assay (TR-FRET).
Experiment [2] has as its target FBXL10 (Homo sapiens (Human), UniProt Q8NHM5). Description: FBXL10 in vitro enzyme inhibition assay (AlphaScreen). As to the method:
Reaction product was determined quantitatively by AlphaScreen detection after the addition of detection reagents anti-H3K36me1 antibody, AlphaScreen® Streptavidin-coated Donor beads, and AlphaScreen® Protein A Acceptor beads in 50 mM HEPES, pH7.3, 10 mM NaCl, 0.005% Brij35, 5 mM EDTA, 2 mg/ml BSA to final 10 μg/ml beads.
Plates were incubated at room temperature for 40 minutes, followed by addition of 3 μl of 50 μg/ml AlphaScreen® Streptavidin-coated Donor beads and AlphaScreen® Protein A Acceptor beads in 50 mM HEPES, pH7.3, 10 mM NaCl, 0.005% Brij35, 5 mM EDTA, 2 mg/ml BSA. Plates were read by EnVisionMultilabel Reader in AlphaScreen mode after a minimum of 2 hour or up to overnight incubation at room temperature. The AlphaScreen signal for each well was used to determine inhibition constant (IC50).

Experiment [3] addresses Jarid1B (Homo sapiens (Human), UniProt Q9UGL1). As to the kind of experiment: Jarid1B in vitro enzyme inhibition assay (TR-FRET). On the technique in general: In TR-FRET formats the signal depends on donor and acceptor labels being close together.
In experiment [4] the target is Jarid1A (Homo sapiens (Human), UniProt P29375). Description: Jarid1A in vitro enzyme inhibition assay (TR-FRET). The source says: The enzymatic assay of Jarid1A activity is based upon Time Resolved-Fluorescence Resonance Energy Transfer (TR-FRET) detection.
Jarid1A, sequence (P29375 1-1090): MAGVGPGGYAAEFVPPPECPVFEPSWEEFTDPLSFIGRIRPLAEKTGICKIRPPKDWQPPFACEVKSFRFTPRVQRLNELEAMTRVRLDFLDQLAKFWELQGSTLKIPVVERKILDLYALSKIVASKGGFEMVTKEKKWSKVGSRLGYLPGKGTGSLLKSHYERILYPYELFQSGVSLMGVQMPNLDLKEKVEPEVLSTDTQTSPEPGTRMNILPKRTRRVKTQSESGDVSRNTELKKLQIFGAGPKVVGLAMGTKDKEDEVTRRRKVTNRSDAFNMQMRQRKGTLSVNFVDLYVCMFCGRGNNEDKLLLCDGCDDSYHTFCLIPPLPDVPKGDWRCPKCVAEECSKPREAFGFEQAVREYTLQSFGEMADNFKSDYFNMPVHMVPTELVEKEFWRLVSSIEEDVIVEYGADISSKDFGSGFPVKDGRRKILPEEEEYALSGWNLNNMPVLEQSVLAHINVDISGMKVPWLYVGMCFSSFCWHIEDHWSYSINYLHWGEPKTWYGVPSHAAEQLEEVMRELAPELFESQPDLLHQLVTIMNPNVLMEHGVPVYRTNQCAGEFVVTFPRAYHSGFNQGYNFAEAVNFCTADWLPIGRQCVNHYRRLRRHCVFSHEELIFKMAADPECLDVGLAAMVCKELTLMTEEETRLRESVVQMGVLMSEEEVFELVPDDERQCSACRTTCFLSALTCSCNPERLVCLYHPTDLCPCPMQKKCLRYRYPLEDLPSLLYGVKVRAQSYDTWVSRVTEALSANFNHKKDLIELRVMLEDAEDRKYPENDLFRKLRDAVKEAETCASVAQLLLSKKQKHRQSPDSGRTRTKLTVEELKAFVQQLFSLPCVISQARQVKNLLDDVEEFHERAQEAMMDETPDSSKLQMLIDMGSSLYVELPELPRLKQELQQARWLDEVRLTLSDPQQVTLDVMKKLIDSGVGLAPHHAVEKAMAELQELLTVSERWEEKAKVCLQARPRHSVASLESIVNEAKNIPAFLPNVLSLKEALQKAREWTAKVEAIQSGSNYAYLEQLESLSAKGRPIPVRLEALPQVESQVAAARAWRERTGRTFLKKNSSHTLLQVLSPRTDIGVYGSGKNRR

Each structure is given as a SMILES string. Where only a bound is given, the exact number is not on record here.

One may read the IC50 as the concentration that inhibits the measured activity by half.

FBXL10, sequence (Q8NHM5 1-650): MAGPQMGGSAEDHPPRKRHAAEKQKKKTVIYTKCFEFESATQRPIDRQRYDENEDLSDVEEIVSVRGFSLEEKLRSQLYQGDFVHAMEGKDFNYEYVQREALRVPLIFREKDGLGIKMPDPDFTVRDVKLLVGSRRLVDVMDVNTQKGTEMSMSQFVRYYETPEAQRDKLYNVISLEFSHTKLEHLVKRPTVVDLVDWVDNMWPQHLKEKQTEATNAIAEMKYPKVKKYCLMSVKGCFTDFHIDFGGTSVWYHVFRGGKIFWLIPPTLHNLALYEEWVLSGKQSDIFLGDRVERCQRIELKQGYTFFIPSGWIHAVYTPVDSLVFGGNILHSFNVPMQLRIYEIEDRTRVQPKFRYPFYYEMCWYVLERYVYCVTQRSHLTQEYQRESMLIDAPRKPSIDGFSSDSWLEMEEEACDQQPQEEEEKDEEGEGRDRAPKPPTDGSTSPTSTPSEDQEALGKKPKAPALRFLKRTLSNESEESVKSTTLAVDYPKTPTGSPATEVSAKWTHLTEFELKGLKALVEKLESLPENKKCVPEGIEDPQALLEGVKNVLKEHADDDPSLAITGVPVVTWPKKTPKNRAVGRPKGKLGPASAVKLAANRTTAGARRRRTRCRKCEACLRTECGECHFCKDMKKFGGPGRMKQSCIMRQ
Jarid1B, sequence (Q9UGL1 2-751): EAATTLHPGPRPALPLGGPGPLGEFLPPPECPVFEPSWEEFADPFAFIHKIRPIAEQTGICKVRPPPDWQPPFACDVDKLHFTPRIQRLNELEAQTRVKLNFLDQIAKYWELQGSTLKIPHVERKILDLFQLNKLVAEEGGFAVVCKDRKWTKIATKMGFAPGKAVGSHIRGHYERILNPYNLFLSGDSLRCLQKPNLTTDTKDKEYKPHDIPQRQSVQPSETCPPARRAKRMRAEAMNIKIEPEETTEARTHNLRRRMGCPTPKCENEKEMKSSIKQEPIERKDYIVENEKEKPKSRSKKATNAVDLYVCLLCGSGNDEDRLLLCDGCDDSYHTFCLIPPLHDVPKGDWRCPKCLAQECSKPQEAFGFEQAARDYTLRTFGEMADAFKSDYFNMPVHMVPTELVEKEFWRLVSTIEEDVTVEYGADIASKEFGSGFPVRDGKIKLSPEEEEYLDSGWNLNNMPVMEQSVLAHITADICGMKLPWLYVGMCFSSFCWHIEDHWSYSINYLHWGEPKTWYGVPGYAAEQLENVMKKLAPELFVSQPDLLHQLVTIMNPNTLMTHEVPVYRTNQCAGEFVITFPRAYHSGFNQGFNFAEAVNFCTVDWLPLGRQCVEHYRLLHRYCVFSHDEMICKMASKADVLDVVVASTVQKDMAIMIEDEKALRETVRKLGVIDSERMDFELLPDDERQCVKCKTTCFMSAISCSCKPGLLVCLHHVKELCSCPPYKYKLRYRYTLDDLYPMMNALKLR
JMJD2C, sequence (Q9H3R0 2-372): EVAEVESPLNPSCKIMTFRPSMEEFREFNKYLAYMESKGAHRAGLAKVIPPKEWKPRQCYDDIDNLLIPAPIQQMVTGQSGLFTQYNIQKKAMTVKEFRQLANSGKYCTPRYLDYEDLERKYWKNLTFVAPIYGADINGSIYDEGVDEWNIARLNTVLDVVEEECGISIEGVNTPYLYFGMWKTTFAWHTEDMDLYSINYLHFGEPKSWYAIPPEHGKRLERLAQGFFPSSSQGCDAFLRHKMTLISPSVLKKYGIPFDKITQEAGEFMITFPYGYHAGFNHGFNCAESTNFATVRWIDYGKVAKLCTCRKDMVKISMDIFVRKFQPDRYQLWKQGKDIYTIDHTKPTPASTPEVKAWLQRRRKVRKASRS

Regarding `Cc1cc(F)ccc1Cc1cc(O)n(-c2cc(C(=O)O)ccn2)n1` [Example 173, 2-[3-[(4-fluoro-2-methylphenyl)methyl]-5-hydroxypyrazol-1-yl]pyridine-4-carboxylic acid], the IC50 was 1000 to 10000 nM in experiment [1] and < 100 nM in experiment [2].

As to `O=C(O)c1ccnc(-n2nc(Cc3c(F)cccc3F)cc2O)c1` [Example 161, 2-[3-[(2,6-difluorophenyl)methyl]-5-hydroxypyrazol-1-yl]pyridine-4-carboxylic acid], the IC50 in experiment [1] is 1000 to 10000 nM; in experiment [2], < 100 nM.

On to `Cc1ccc(COc2ccnn2-c2cc(C(=O)O)ccn2)cc1` [Example 55, 2-{5-[(4-methylbenzyl)oxy]-1H-pyrazol-1-yl}pyridine-4-carboxylic acid], for which the IC50 was < 100 nM in experiment [1], < 100 nM in experiment [3], 1000 to 10000 nM in experiment [2] and < 100 nM in experiment [4].

For `Oc1cc(Cc2cccc(Cl)c2)nn1-c1cc(-c2nnn[nH]2)ccn1` [Example 168, 5-[(3-chlorophenyl)methyl]-2-[4-(1H-tetrazol-5-yl)pyridin-2-yl]pyrazol-3-ol], the 50% inhibitory concentration (IC50) was 1000 to 10000 nM in experiment [1] and < 100 nM in experiment [2].

With `Oc1cc(Cc2ccccc2Cl)nn1-c1cc(-c2nnn[nH]2)ccn1` [Example 167, 5-[(2-chlorophenyl)methyl]-2-[4-(1H-tetrazol-5-yl)pyridin-2-yl]pyrazol-3-ol], the results for the IC50 in experiment [1] and in experiment [2] were 1000 to 10000 nM and < 100 nM, respectively.

Regarding `O=C(O)c1ccnc(-n2nc(C3(c4ccc(Cl)cc4)CC3)cc2O)c1` [Example 171, 2-[3-[1-(4-chlorophenyl)cyclopropyl]-5-hydroxypyrazol-1-yl]pyridine-4-carboxylic acid], the half-inhibitory concentration (IC50) in experiment [1] was 1000 to 10000 nM; in experiment [2] it was < 100 nM.

Turning to `Cc1ccc(Cc2cc(O)n(-c3cc(C(=O)O)ccn3)n2)c(F)c1` [Example 174, 2-[3-[(2-fluoro-4-methylphenyl)methyl]-5-hydroxypyrazol-1-yl]pyridine-4-carboxylic acid], the IC50 in experiment [1] was 1000 to 10000 nM; in experiment [2] it was < 100 nM.

Take `O=C(O)c1ccnc(-n2nccc2OCc2ccc(F)cc2)c1` [Example 40, 2-{5-[(4-fluorobenzyl)oxy]-1H-pyrazol-1-yl}pyridine-4-carboxylic acid]: the IC50 in experiment [1] was < 100 nM; in experiment [3] it was < 100 nM; in experiment [2], > 10000 nM; in experiment [4], < 100 nM.

On to `O=C(O)c1ccnc(-n2nc(Cc3cc(Cl)cc(Cl)c3)cc2O)c1` [Example 172, 2-[3-[(3,5-dichlorophenyl)methyl]-5-hydroxypyrazol-1-yl]pyridine-4-carboxylic acid], for which the IC50 in experiment [1] was 1000 to 10000 nM; in experiment [2], 100 to 1000 nM.

`O=C(O)c1ccnc(-n2nccc2OCc2ccc(Cl)cc2OCc2ccccc2)c1` [Example 105, 2-[5-[(4-chloro-2-phenylmethoxyphenyl)methoxy]pyrazol-1-yl]pyridine-4-carboxylic acid]: the IC50 is 100 to 1000 nM in experiment [1], < 100 nM in experiment [3], 100 to 1000 nM in experiment [2] and < 100 nM in experiment [4].

For `O=C(O)c1ccnc(-n2nc(-c3ccccc3F)cc2O)c1` [Example 5, 2-(3-(2-fluorophenyl)-5-hydroxy-1H-pyrazol-1-yl)isonicotinic acid], the IC50 is 1000 to 10000 nM in experiment [1], 1000 to 10000 nM in experiment [3], < 100 nM in experiment [2] and 1000 to 10000 nM in experiment [4].

As for `Cc1nn(-c2cc(C(=O)O)ccn2)c(O)c1-c1ccccc1` [Example 4, 2-(5-hydroxy-3-methyl-4-phenyl-1H-pyrazol-1-yl)isonicotinic acid], the IC50 in experiment [1] lay within 1000 to 10000 nM; in experiment [3], 1000 to 10000 nM; in experiment [2], 100 to 1000 nM; in experiment [4] it was 1000 to 10000 nM.

Regarding `Cc1nn(-c2cc(C(=O)O)ccn2)c(O)c1C` [Example 3, 2-(5-hydroxy-3,4-dimethyl-1H-pyrazol-1-yl)isonicotinic acid], the IC50 in experiment [1] is 100 to 1000 nM; in experiment [3] it was < 100 nM; in experiment [2] it was 100 to 1000 nM; in experiment [4] it was 100 to 1000 nM.

Take `O=C(O)c1ccnc(-n2nccc2OCc2ccc(Cl)cc2OCC(F)(F)F)c1` [Example 108, 2-[5-[[4-chloro-2-(2,2,2-trifluoroethoxy)phenyl]methoxy]pyrazol-1-yl]pyridine-4-carboxylic acid]: the IC50 was 100 to 1000 nM in experiment [1], < 100 nM in experiment [3], 1000 to 10000 nM in experiment [2] and < 100 nM in experiment [4].

On to `O=C(O)c1ccnc(-n2ccc(Cc3ccccc3)n2)c1` [Example 33, 2-(3-benzyl-1H-pyrazol-1-yl)isonicotinic acid], for which the IC50 in experiment [1], in experiment [3], in experiment [2] and in experiment [4] was 1000 to 10000 nM in each case.

As to `COCc1cc(O)n(-c2cc(C(=O)O)ccn2)n1` [Example 9, 2-(5-hydroxy-3-(methoxymethyl)-1H-pyrazol-1-yl)isonicotinic acid], the concentration for half-maximal inhibition (IC50) is 1000 to 10000 nM in experiment [1], 100 to 1000 nM in experiment [3], < 100 nM in experiment [2] and 100 to 1000 nM in experiment [4].

Take `CCCc1cc(O)n(-c2cc(C(=O)O)ccn2)n1` [Example 6, 2-(5-hydroxy-3-propyl-1H-pyrazol-1-yl)isonicotinic acid]: the IC50 in experiment [1], in experiment [3], in experiment [2] and in experiment [4] was 100 to 1000 nM in each case.

`O=C(O)c1ccnc(-n2nccc2O)c1` [Example 11, 2-(5-hydroxy-1H-pyrazol-1-yl)isonicotinic acid]: the IC50 in experiment [1] is 100 to 1000 nM; in experiment [3], < 100 nM; in experiment [2], 100 to 1000 nM; in experiment [4], < 100 nM.

For the molecule `O=C(O)c1ccnc(-n2nccc2-c2ccc(F)cc2)c1` [Example 27, 2-(5-(4-fluorophenyl)-1H-pyrazol-1-yl)isonicotinic acid], the IC50 in experiment [1] is 100 to 1000 nM; in experiment [3], 100 to 1000 nM; in experiment [2] it was > 10000 nM; in experiment [4] it was 100 to 1000 nM.

`O=C(O)c1ccnc(-n2nc(COc3ccccc3)cc2O)c1` [Example 10, 2-(5-hydroxy-3-(phenoxymethyl)-1H-pyrazol-1-yl)isonicotinic acid]: the IC50 in experiment [1] was > 10000 nM; in experiment [3], 100 to 1000 nM; in experiment [2], < 100 nM; in experiment [4] it was 1000 to 10000 nM.

Consider `CC(C)(c1ccc(Cl)cc1)c1cc(O)n(-c2cc(C(=O)O)ccn2)n1` [Example 170, 2-[3-[2-(4-chlorophenyl)propan-2-yl]-5-hydroxypyrazol-1-yl]pyridine-4-carboxylic acid], for which the IC50 in experiment [1] is 1000 to 10000 nM; in experiment [2], < 100 nM.

Turning to `CC(c1ccccc1)c1cc(O)n(-c2cc(-c3nnn[nH]3)ccn2)n1` (stereo not drawn) [Example 166, 5-(1-phenylethyl)-2-[4-(1H-tetrazol-5-yl)pyridin-2-yl]pyrazol-3-ol], the figures for the IC50 in experiment [1] and in experiment [2] were 1000 to 10000 nM and < 100 nM, respectively.

Take `O=C(O)c1ccnc(-n2nc(Cc3ccc(F)cc3F)cc2O)c1` [Example 175, 2-[3-[(2,4-difluorophenyl)methyl]-5-hydroxypyrazol-1-yl]pyridine-4-carboxylic acid]: the values for the IC50 in experiment [1] and in experiment [2] were 1000 to 10000 nM and < 100 nM, respectively.

For the origin of these results see patent US9604961B2, “Histone demethylase inhibitors” (Celgene Quanticel Research, Inc., priority 2012, dated 2017).
